The results in this text go back to PubChem BioAssay (NCI).

Among the test systems are CCRF-CEM leukemia; COLO 205 colon; EKVX NSCLC; HCT-116 colon; HOP-92 NSCLC; KM12 colon; MDA-MB-231 breast; MDA-N; OVCAR-5 ovarian; OVCAR-8 ovarian; SF-295 CNS; U251 CNS; HL-60(TB) leukemia.
What all share (experiment): inhibition of tumour cell growth, NCI panel, 48 h

The structures appear in SMILES notation.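 Cultured in 96-well plates, cells were exposed to test compound for 48 hours across five concentrations. TGI marks complete inhibition of growth.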 A value given as a limit tells only on which side of the number the result lay.

On to `CC1CCCOc2ccc(cc2)C=Nc2ccc(cc2)CCc2ccc(cc2)N=Cc2ccc(cc2)OCCC1` (centres undefined), for which the TGI in the experiment on CCRF-CEM leukemia, in the experiment with COLO 205 colon, in the experiment with EKVX NSCLC, with HCT-116 colon, in the experiment on HOP-92 NSCLC and in the experiment with KM12 colon was over 100 µM in each case. The TGI with MDA-MB-231 breast, in the experiment with MDA-N, in the experiment with OVCAR-5 ovarian, with OVCAR-8 ovarian, in the experiment on SF-295 CNS and in the experiment on U251 CNS was over 100 µM throughout.

As to `CCOC(=O)C(NNS(=O)(=O)c1ccc(C)cc1)S(=O)(=O)C(F)(F)C(F)(F)C(F)(F)C(F)(F)F` (centres undefined), the TGI in the experiment with COLO 205 colon, with EKVX NSCLC, in the experiment with HCT-116 colon, in the experiment on HL-60(TB) leukemia, with HOP-92 NSCLC and in the experiment on KM12 colon was over 100 µM throughout. Also, the TGI with MDA-MB-231 breast, in the experiment with MDA-N, with OVCAR-5 ovarian, in the experiment with OVCAR-8 ovarian, in the experiment with SF-295 CNS and in the experiment with U251 CNS was over 100 µM each time.

For `CO/C(=N/N1CC1C(F)(F)F)c1ccncc1` (centres undefined), the TGI with CCRF-CEM leukemia, with COLO 205 colon, with HCT-116 colon, in the experiment on HL-60(TB) leukemia, in the experiment on HOP-92 NSCLC and in the experiment with KM12 colon was over 100 µM each time. The TGI in the experiment on MDA-MB-231 breast, in the experiment with MDA-N, in the experiment with OVCAR-5 ovarian, with OVCAR-8 ovarian, with SF-295 CNS and with U251 CNS was over 100 µM in each case.

`Cc1cc(Cl)nc(NC(=O)CSc2ccc(Cl)cc2)n1`: the TGI with CCRF-CEM leukemia, in the experiment with EKVX NSCLC, with HCT-116 colon, in the experiment with HL-60(TB) leukemia, in the experiment on HOP-92 NSCLC and in the experiment with KM12 colon was over 100 µM throughout. Moreover, the TGI in the experiment with MDA-MB-231 breast, with MDA-N, with OVCAR-5 ovarian, in the experiment on OVCAR-8 ovarian, in the experiment on SF-295 CNS and in the experiment on U251 CNS was over 100 µM throughout.

For the compound `Cc1cc(S(=O)(=O)Nc2nc(N)n(-c3cnc4ccccc4n3)n2)c(S)cc1Cl`, the TGI was over 100 µM in the experiment on CCRF-CEM leukemia; over 100 µM with COLO 205 colon; over 100 µM with EKVX NSCLC; over 100 µM with HCT-116 colon; over 100 µM in the experiment on HL-60(TB) leukemia; 89.2 µM in the experiment with HOP-92 NSCLC. Further, the TGI in the experiment on KM12 colon, in the experiment with MDA-MB-231 breast, with MDA-N, in the experiment on OVCAR-5 ovarian, in the experiment with OVCAR-8 ovarian and in the experiment on U251 CNS was over 100 µM throughout.

On to `Cc1ccc(S(=O)(=O)Nn2c(-c3ccccc3)c(C#N)c(-c3ccc(Cl)cc3)c(C#N)c2=O)cc1`, for which the TGI was determined as 60.4 µM in the experiment with CCRF-CEM leukemia; 65.3 µM with COLO 205 colon; 37.3 µM with HCT-116 colon; 31.7 µM in the experiment with HL-60(TB) leukemia; 79.7 µM in the experiment on HOP-92 NSCLC; 89.5 µM in the experiment on MDA-MB-231 breast. In addition, the TGI with MDA-N was over 100 µM; with OVCAR-5 ovarian it was over 100 µM; in the experiment with SF-295 CNS, over 100 µM; in the experiment with U251 CNS it was 55.1 µM.

As for `C#CCCCC(=C)C[C@H](OCc1ccccc1)[C@H]1OC(=O)[C@@H]1C`, the TGI is over 100 µM in the experiment on CCRF-CEM leukemia; over 100 µM in the experiment with EKVX NSCLC; over 100 µM in the experiment with HL-60(TB) leukemia; over 100 µM in the experiment with HOP-92 NSCLC; over 100 µM with KM12 colon; 63.3 µM in the experiment on MDA-MB-231 breast. In addition, the TGI in the experiment on MDA-N, with OVCAR-5 ovarian, in the experiment on OVCAR-8 ovarian, in the experiment with SF-295 CNS and in the experiment on U251 CNS was over 100 µM each time.

For `CC(C)=CCNc1ncnc2c1ncn2CCC(=O)OC(C)(C)C`, the TGI in the experiment on CCRF-CEM leukemia, with COLO 205 colon, in the experiment on HCT-116 colon, with HL-60(TB) leukemia, in the experiment with HOP-92 NSCLC and with KM12 colon was over 100 µM each time. In addition, the TGI in the experiment on MDA-MB-231 breast, in the experiment with MDA-N, with OVCAR-5 ovarian, in the experiment with OVCAR-8 ovarian, with SF-295 CNS and in the experiment with U251 CNS was over 100 µM in each case.

With `COC(=O)c1cc(C)ccc1/C=C1\Cc2cc(C)c(C)cc2C1=O`, the TGI in the experiment on EKVX NSCLC, in the experiment with HCT-116 colon, in the experiment on HL-60(TB) leukemia, in the experiment on HOP-92 NSCLC, in the experiment with KM12 colon and with MDA-MB-231 breast was over 100 µM throughout. For the same compound, the TGI in the experiment with MDA-N, with OVCAR-5 ovarian, in the experiment on OVCAR-8 ovarian and in the experiment with SF-295 CNS was over 100 µM in each case.

Consider `Cc1[nH]c2c(C)ccc(C)c2c1CC(=O)O`, for which the TGI in the experiment with CCRF-CEM leukemia is 42.3 µM; in the experiment with COLO 205 colon it was over 100 µM; in the experiment with EKVX NSCLC, over 100 µM; in the experiment with HCT-116 colon it was over 100 µM; in the experiment with HL-60(TB) leukemia, 23.7 µM; in the experiment with KM12 colon, over 100 µM. Also, the TGI is 76.3 µM in the experiment with MDA-MB-231 breast; over 100 µM in the experiment with MDA-N; over 100 µM with OVCAR-5 ovarian; over 100 µM in the experiment on OVCAR-8 ovarian; over 100 µM with SF-295 CNS; over 100 µM in the experiment with U251 CNS.

As for `O=C(O)C(Cc1ccc(O)cn1)NC(=O)C(F)(F)F` (centres undefined), the TGI in the experiment on CCRF-CEM leukemia, with COLO 205 colon, in the experiment on EKVX NSCLC, with HCT-116 colon, with HL-60(TB) leukemia and in the experiment with KM12 colon was over 100 µM in each case. The TGI in the experiment with MDA-MB-231 breast, in the experiment with MDA-N, with OVCAR-5 ovarian, with OVCAR-8 ovarian, with SF-295 CNS and in the experiment with U251 CNS was over 100 µM in each case.

For the compound `NC(=O)/N=C(\N)NC(=O)c1ccccc1`, the TGI in the experiment with EKVX NSCLC, with HCT-116 colon, in the experiment on HL-60(TB) leukemia, in the experiment on HOP-92 NSCLC, in the experiment on KM12 colon and with MDA-MB-231 breast was over 100 µM throughout. The TGI with MDA-N, with OVCAR-5 ovarian, in the experiment with OVCAR-8 ovarian, with SF-295 CNS and in the experiment with U251 CNS was over 100 µM each time.

For `COC(=O)CCc1ccc2c(c1)CCC2`, the TGI in the experiment on CCRF-CEM leukemia, in the experiment on COLO 205 colon, with HCT-116 colon, in the experiment on HL-60(TB) leukemia, in the experiment with HOP-92 NSCLC and in the experiment with KM12 colon was over 100 µM each time. Besides, the TGI with MDA-MB-231 breast, in the experiment on MDA-N, with OVCAR-5 ovarian, in the experiment on OVCAR-8 ovarian, with SF-295 CNS and in the experiment with U251 CNS was over 100 µM each time.

In the case of `O=C(CCl)N1CCCCC1C1(c2cc3ccccc3[nH]2)OCCO1` (centres undefined), the TGI was 12.1 µM in the experiment on COLO 205 colon; 5.74 µM with EKVX NSCLC; 10.2 µM in the experiment with HCT-116 colon; over 100 µM in the experiment with HL-60(TB) leukemia; 24.7 µM in the experiment on HOP-92 NSCLC; 8.48 µM in the experiment with KM12 colon. In addition, the TGI in the experiment on MDA-MB-231 breast was found to be 12.8 µM; with MDA-N it was 8.81 µM; in the experiment on OVCAR-5 ovarian, 17.2 µM; with OVCAR-8 ovarian, 17.6 µM; with SF-295 CNS, 11.5 µM; in the experiment with U251 CNS it was 12.7 µM.

`CNC(=O)Nc1cc2c3c(c1)CCCN3CCC2`: the TGI in the experiment on CCRF-CEM leukemia, in the experiment on COLO 205 colon, with EKVX NSCLC, with HCT-116 colon, in the experiment with HOP-92 NSCLC and with KM12 colon was over 10 µM throughout. Also, the TGI in the experiment on MDA-MB-231 breast, in the experiment on MDA-N, with OVCAR-5 ovarian, with OVCAR-8 ovarian, in the experiment on SF-295 CNS and in the experiment with U251 CNS was over 10 µM throughout.

As for `CC(=O)OCC1OC(n2c(C)c(N=Nc3ccc(C)cc3)c(C)c(C#N)c2=S)C(OC(C)=O)C(OC(C)=O)C1OC(C)=O` (centres undefined), the TGI in the experiment with CCRF-CEM leukemia is over 100 µM; with COLO 205 colon, over 100 µM; in the experiment with HCT-116 colon it was over 100 µM; in the experiment with HL-60(TB) leukemia it was over 100 µM; with HOP-92 NSCLC it was 34.2 µM; in the experiment with KM12 colon, over 100 µM. Besides, the TGI with MDA-MB-231 breast, with MDA-N, in the experiment with OVCAR-5 ovarian, in the experiment with SF-295 CNS and with U251 CNS was over 100 µM each time.

As to `CC(C)[Si](OC12CCC(CC1O)CC2C(=O)O)(C(C)C)C(C)C` (centres undefined), the TGI in the experiment with CCRF-CEM leukemia is 70 µM; with COLO 205 colon, 59.2 µM; in the experiment with HCT-116 colon it was 23.8 µM; with HL-60(TB) leukemia, 6.87 µM; in the experiment on HOP-92 NSCLC, 27.4 µM; in the experiment on KM12 colon, 26.2 µM. For the same compound, the TGI with MDA-MB-231 breast was determined as 38 µM; in the experiment on MDA-N, 39.7 µM; in the experiment with OVCAR-5 ovarian, 30 µM; in the experiment on OVCAR-8 ovarian, 42.4 µM; in the experiment on SF-295 CNS it was 29.2 µM; in the experiment with U251 CNS, 31.4 µM.

Regarding `COc1ccc(C)c2c1N[C@](C)([C@]1(C)Nc3c(OC)ccc(C)c3C1=O)C2=O`, the TGI with CCRF-CEM leukemia, in the experiment on COLO 205 colon, with EKVX NSCLC, in the experiment on HCT-116 colon, with HOP-92 NSCLC and in the experiment on KM12 colon was over 100 µM in each case. The TGI with MDA-MB-231 breast, with MDA-N, in the experiment on OVCAR-5 ovarian, in the experiment with OVCAR-8 ovarian, in the experiment with SF-295 CNS and in the experiment on U251 CNS was over 100 µM throughout.
